Data: US6211373A, “Phenyl urea antagonists of the IL-8 receptor” (SmithKline Beecham Corporation, priority 1998, dated 2001)

Target: T1, recombinant human IL-8 type b receptor (IL-8 Rb, Type II, permissive receptor) (Homo sapiens, UniProt P25025)
T1 construct: membranes
T1 sequence (P25025 1-360): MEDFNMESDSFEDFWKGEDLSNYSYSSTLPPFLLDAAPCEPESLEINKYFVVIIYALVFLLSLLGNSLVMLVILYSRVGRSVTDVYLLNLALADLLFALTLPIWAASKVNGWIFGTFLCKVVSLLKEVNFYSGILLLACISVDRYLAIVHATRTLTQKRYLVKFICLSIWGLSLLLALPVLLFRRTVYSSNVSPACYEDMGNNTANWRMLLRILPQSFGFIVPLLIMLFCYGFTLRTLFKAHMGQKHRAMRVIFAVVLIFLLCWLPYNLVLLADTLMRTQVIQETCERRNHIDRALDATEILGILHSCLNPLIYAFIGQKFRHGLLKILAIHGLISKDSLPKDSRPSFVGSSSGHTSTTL
Experiment: Receptor binding assay, [125I] IL-8, permissive model
Source text: [^125 I] IL-8 (human recombinant) was obtained from Amersham Corp., Arlington Heights, Ill., with specific activity 2000 Ci/mmol. Gro-a was obtained from NEN-New England Nuclear. All other chemicals were of analytical grade. High levels of recombinant human IL-8 type a and b receptors were individually expressed in Chinese hamster ovary cells as described previously (Holmes, et al., Science, 1991, 253, 1278). The Chinese hamster ovary membranes were homogenized according to a previously described protocol (Haour, et al., J Biol Chem., 249 pp 2195-2205 (1974)). Except that the homogenization buffer was changed to 10 mM Tris-HCL, 1 mM MgSO4, 0.5 mM EDTA (ethylene-diaminetetra-acetic acid), 1 mMPMSF (a-toluenesulphonyl fluoride), 0.5 mg/L Leupeptin, pH 7.5. Membrane protein concentration was determined using Pierce Co. micro-assay kit using bovine serum albumin as a standard. All assays were performed in a 96-well micro plate format. Each reaction mixture contained ^125 I IL-8 (0.25 nM) or ^125 I Gro-a and 0.5 μg/mL of IL-8Ra or 1.0 μg/mL of IL-8Rb membranes in 20 mM Bis-Trispropane and 0.4 mM Tris HCl buffers, pH 8.0, containing 1.2 mM MgSO4, 0.1 mM EDTA, 25 mM NaCl and 0.03% CHAPS. […] The filter was then dried and counted on the Betaplate liquid scintillation counter. […]

level at which found to be active (IL-8 receptor inhibition): about 75 μg/mL
SMILES: Cc1cc(Cl)ccc1NC(=O)Nc1ccccc1C(=O)O [1-(2-Carboxyphenyl)-3-(4-chloro-2-methylphenyl)urea]
